From article PMC7515950, “Physiologically based pharmacokinetic modeling to assess metabolic drug–drug interaction risks and inform the drug label for fedratinib” (Cancer Chemotherapy and Pharmacology, 2020) come the findings set out here.

Broadly, the Papp is the rate of passage across a membrane or cell layer, normalised by area and donor concentration. A higher Papp goes with ready permeation. As a reminder, the IC50 is the point on the concentration scale where inhibition reaches its midpoint. Broadly, the CL/F is the apparent clearance, not corrected for the fraction that reaches the circulation.

Structures are written as SMILES. “And” between values parts separate entries of the source, which are not always exact repeats. Identical values can stand only once.

Series [1] in a line: Caco-2/TC7 permeability (Study AIV0208). It is filed as in vitro ADME, human. The settings on record: human, Caco-2. The text has this: (§1) By default, the QGut is set to be the mean value (i.e., 6.5 L/h) in the PBPK model of fedratinib.
A general note: Caco-2 cells form a polarised layer with tight junctions and transporters.

Series [2] deals with Caco-2/TC7. Kind of series: Caco-2/TC7 permeability (Study AIV0208). The series is classed as in vitro ADME, human. The settings on record: Apical pH:Basolateral pH 7.4:7.4; Simcyp input.
Text: as §1

The target in series [3] is T1, CYP2C9 (Homo sapiens, UniProt P11712).
T1 construct: from tissue; host or cells: human liver microsomes
The series can be described thus: CYP inhibition in human liver microsomes (MIH0887), CYP2C9. It is filed as in vitro ADME. The conditions noted are these: HLM, apparent Ki, reversible inhibition. How it is done:
The CYP enzyme reverse inhibition and mechanism-based inhibition (MBI) parameters were estimated in the human liver microsome (HLM) incubation in vitro studies. The reported reversible inhibition parameter (i.e., apparent Ki) values for CYP2C8, CYP2C9, and CYP2D6, along with the MBI parameters (i.e., KI or Kapp and kinact) for CYP2C19 and CYP3A4, were supplied to the PBPK DDI model (see Table 2).
(Liver microsomes are a subcellular fraction often used to study metabolism.)

Series [4] has as its target T2, OCT1 (Homo sapiens, UniProt O15245).
T2 construct: expressed in transfected cells; host or cells: CHO^Fi-hOCT1
T2 sequence (O15245 1-554): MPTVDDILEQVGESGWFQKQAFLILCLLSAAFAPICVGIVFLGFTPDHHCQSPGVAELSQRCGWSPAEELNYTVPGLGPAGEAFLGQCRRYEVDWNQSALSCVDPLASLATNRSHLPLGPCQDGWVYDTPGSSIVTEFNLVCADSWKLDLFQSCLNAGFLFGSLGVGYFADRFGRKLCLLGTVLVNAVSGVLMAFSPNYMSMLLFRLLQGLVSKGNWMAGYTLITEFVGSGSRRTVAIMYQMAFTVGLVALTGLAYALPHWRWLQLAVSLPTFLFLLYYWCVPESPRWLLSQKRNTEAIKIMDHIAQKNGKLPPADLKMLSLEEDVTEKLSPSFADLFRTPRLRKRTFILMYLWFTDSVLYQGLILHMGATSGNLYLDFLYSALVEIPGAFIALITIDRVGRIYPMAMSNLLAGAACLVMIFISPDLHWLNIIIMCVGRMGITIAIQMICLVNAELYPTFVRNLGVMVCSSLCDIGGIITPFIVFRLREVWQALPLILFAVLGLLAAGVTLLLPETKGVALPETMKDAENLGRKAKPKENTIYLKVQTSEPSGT
The series can be described thus: OCT1 inhibition, CHO-hOCT1 cells (TRI0013). The series is classed as in vitro ADME. An excerpt: (§2) The reported IC50 values were converted to Ki values using the Cheng-Prusoff equation [10]:
(§3) The transporter inhibition parameters (Ki) for fedratinib were derived from the experimentally determined IC50 values using the Cheng-Prusoff equation, i.e., Ki = IC50/(1+[S]/Km) with the substrate concentrations ([S]) reported in the experimental studies and the substrate Km values collected from literature, as summarized in Table 13.

Series [5] is described as follows: Compartmental PK modeling of single-dose 500 mg data in healthy volunteers. It is filed as in vivo, human. An excerpt: The PBPK model of fedratinib was constructed in Simcyp® by integrating available in vitro and in vivo information, including physiochemical parameters, permeability and blood binding parameters, enzyme and transporter inhibition parameters, and human PK parameters estimated from clinical PK data. A stepwise “middle-out” approach was applied to estimate the human PBPK parameters for fedratinib in Simcyp®. First, the temporal profiles of mean plasma concentration of fedratinib were collected from the clinical studies in healthy volunteers (HVs) administered single doses of 500 mg fedratinib. Then the preliminary human oral PK parameters were estimated as described in Supplemental Materials SM2 and SM3.
The minimal PBPK model within Simcyp® was used to describe the distribution of fedratinib. The Vss, Vsac, and Q values were estimated using the compartmental PK modeling approach (see Table 3 in Supplemental Material SM 3) and further refined within Simcyp® based on the model-predicted bioavailability (F) using the following equations: […]
The estimated values of Vss, Vsac, and Q were directly supplied to the Distribution module within Simcyp® without further modifications. Note that since the intravenous (IV) PK data are not available in humans for fedratinib, the distribution parameters include Vss estimated from the oral human PK data may not be accurate and will be subject to further verification if the human IV PK data of fedratinib or other relevant clinical information are available in the future.
The temporal profiles of mean plasma concentration of fedratinib were collected from the clinical studies (TDU12620, BDR12462, FED12258, and ALI13451) conducted in healthy volunteers (HVs) administered with single doses of 500 mg fedratinib. The compartmental PK modeling was conducted in Phoenix®/NLME (V7, Certara, Princeton, NJ). A two-compartment PK structural model with the additive error model was identified to successfully describe the PK data. The “naïve pooled” algorithm provided in Phoenix was used for parameter estimation.

Series [6] concerns the target T3, OATP1B1 (Homo sapiens, UniProt Q9Y6L6).
T3 sequence (Q9Y6L6 1-691): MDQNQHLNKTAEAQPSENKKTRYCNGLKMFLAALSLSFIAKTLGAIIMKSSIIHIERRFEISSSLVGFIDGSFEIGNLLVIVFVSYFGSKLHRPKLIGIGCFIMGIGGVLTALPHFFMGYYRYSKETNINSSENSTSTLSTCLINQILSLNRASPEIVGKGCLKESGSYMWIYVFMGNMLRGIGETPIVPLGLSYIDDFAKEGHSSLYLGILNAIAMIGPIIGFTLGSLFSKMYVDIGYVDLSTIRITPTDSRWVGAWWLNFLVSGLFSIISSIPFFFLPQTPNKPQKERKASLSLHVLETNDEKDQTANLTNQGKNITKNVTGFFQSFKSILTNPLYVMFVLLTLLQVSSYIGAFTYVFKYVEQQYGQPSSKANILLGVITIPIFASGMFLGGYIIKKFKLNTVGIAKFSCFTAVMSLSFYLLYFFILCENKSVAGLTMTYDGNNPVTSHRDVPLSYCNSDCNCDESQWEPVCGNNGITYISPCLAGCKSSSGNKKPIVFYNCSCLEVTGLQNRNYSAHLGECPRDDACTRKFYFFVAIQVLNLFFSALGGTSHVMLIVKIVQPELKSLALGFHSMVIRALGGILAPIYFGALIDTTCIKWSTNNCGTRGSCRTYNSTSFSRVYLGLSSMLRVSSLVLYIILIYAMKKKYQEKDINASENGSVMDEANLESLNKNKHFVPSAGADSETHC
The series can be described thus: OATP1B1 inhibition, HEK-hOATP1B1 cells (TRE0075). It is filed as in vitro ADME. Also noted: expressed in transfected cells; host or cells: HEK^TR-hOATP1B1.
Text: as §2, §3

[7] abbreviates: healthy subjects, single doses of 500 mg, two-compartment model.

T1 sequence (P11712 whole entry): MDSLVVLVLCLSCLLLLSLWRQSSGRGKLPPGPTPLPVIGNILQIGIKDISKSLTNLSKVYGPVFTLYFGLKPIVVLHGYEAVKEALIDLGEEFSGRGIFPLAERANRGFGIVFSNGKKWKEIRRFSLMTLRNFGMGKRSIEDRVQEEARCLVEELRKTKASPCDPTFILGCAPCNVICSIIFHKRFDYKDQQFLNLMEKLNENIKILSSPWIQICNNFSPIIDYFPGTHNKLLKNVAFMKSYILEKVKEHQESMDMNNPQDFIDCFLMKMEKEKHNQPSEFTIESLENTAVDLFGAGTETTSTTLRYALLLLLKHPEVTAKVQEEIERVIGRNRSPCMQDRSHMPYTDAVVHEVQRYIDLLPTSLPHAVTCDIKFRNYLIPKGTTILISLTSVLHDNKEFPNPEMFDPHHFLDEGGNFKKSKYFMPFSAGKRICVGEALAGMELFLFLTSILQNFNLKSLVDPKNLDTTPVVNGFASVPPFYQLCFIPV

Regarding `Cc1cnc(Nc2ccc(OCCN3CCCC3)cc2)nc1Nc1cccc(S(=O)(=O)NC(C)(C)C)c1` [Fedratinib], the Papp at 40 μM in series [1] (Apical pH:Basolateral pH 6.5:7.4, 40 μM fedratinib) is 0.21 ×10⁻⁶ cm/s. The compound further returned an apparent permeability (Papp) at 100 μM in series [1] (Apical pH:Basolateral pH 7.4:7.4, 100 μM fedratinib) of 17.8 ×10⁻⁶ cm/s. The PCaco-2 in series [2] is recorded as 17.800 10E-06 cm/s. Moreover, the Ki is 26.1 µM in series [3]; 5.59 µM in series [4] (from IC50 by Cheng-Prusoff, probe TEA); 14.6 µM in series [6] (from IC50 by Cheng-Prusoff, probe estradiol-17β-glucuronide). Further, the IC50 in series [4] (probe TEA 25 μM) came to 6.06 µM; in series [6] (probe estradiol-17β-glucuronide 1 μM), 16.4 µM. The ka in series [5] (Simcyp input) amounted to 0.220 h⁻¹. In addition, the “Q (inter-compartment clearance)” value in series [5] (from compartmental modeling, assuming F ~0.36) was ~ 11 L/h. The Vsac in series [5] (from compartmental modeling, assuming F ~0.36 and body weight ~81 kg) worked out at 3.5 L/kg; in series [5] (from compartmental modeling, assuming F ~0.36 and body weight ~81 kg, listed as fedratinib) it was 3.5 L/kg. The “ka (first-order absorption constant)” value in series [5] (healthy subjects, single doses of 500 mg) was 0.22 h⁻¹ and 0.221 h⁻¹; in series [5] (healthy subjects, single doses of 500 mg, listed as fedratinib) it was ~ 0.22 h^-1. The CL2/F in series [5] (setting [7]) was found to be 30.8 L/h. This compound also registered a CL/F in series [5] (setting [7]) of 27.2 L/h. The same compound registered a V2/F in series [5] (setting [7]) of 797 L. Besides, the V/F in series [5] (setting [7]) is 107 L. Moreover, in series [5] (human, plasma, oral, 500 mg, from compartmental modeling, assuming F ~0.36 and body weight ~81 kg, read-out: Vss), the Vd is approximately 4.1 L/kg.
